# Tests used:
# [1] = tested on: Human mesenchymal stem cells (MSCs); assay: Senolytic effect in MSCs upon irradiation induced senescence (relative cell viability); type: cell-based; conditions: 24-hour treatment, normalized to non-irradiated control
# Experimental: Human mesenchymal stem cells (MSCs) were counted by using LUNA-II Automated Cell Counter. 1.0×10^5 cells were seeded to each well of 6-well plate and cultured for 24 hours. The cells were divided into two groups: non-irradiated and irradiated group. The irradiated group received gamma irradiation by irradiator. 10 Gy was the dosage of irradiation used. 24 hours after the irradiation, the non-irradiated and irradiated group were treated with different concentration of chemical. After 24-hour treatment, the cells were counted again using LUNA-II Automated Cell Counter. The population doubling level (PDL) which reflects the proliferation rate of cells was calculated by the formula: n=3.32×(logUCY−logI)+X, where n=the PDL number, UCY=the cell yield at that time point, I=the initial cell number, and X=the doubling level of the cells used to initiate the subculture being quantitated.
# The relative cell viability was calculated by normalizing each sample to non-irradiated control sample. […] As CBD selectively killed senescent MSCs while keeping proliferating MSCs unharmed, it was discovered to be a novel senolytic. Referring to FIG. 12b, Western blotting was carried to investigate the mechanism behind CBD's senolytic effect. […] While as proliferating and senescent MSCs responded differently in phosphorylated akt level.
# LMNA^G609G/G609G MEFs = assay: Relative nuclear circularity of MEFs; type: cell-based, mouse; conditions: 12-day CBD treatment, vs control
# Experimental: In the step of determining the relative nuclear circularity, the primary mouse embryonic fibroblasts (MEFs) at passage 3 were seeded and cultured in chamber slides. Nuclei were stained using DAPI or LMNA/C antibodies. The fluorescence images were captured using confocal microscopy. The perimeter and area of the individual nucleus were measured using software CellProfiler. Relative nuclear circularity was calculated using the formula: […]
# A value of 1 in relative nuclear circularity indicates a perfect circle. Nuclei with relative nuclear circularity closer to 0 indicate they are more irregularly shaped.
# [2] = tested on: p21 and p16 in wildtype and LMNA^G609G/G609G MEFs; assay: Western blotting of senescence markers in MEFs; type: cell-based, mouse; conditions: 4-day CBD treatment
# Experimental: In the step of determining the protein expression levels of senescence markers, the primary mouse embryonic fibroblasts (MEFs) at passage 3 were seeded and cultured in 6-well plate and treated with CBD for 4 days. The cells were then washed twice with ice-cold phosphate buffered saline (PBS). RIPA 150 buffer (20 mM Tris-HCl pH 7.5, 1 mM EDTA pH 8.0, 150 mM NaCl, 1% Nonidet P-40, 0.5% sodium deoxycholate) supplemented with 1 mM dithiothreitol (DTT) and proteinase inhibitors was added to the cells and shook at 4° C. for 15 minutes. The cells were then collected into Eppendorf tubes and centrifuged at 12000 rpm at 4° C. for 10 minutes. The supernatant was collected and 6×SDS sample buffer (20 mM Tris-HCl pH 7.5, 30% glycerol, 10% sodium dodecyl sulfate (SDS), 0.6 M DTT, 0.03% bromophenol blue) was added. The samples were boiled for 5 minutes. Then they were ready for sodium dodecyl sulfate-polyacrylamide gel electrophoresis (SDS-PAGE) for Western blotting analysis. Depending on the sizes of target proteins, 7-15% polyacrylamide separating gel and 4% polyacrylamide stacking gel were made. Samples and protein ladders were loaded onto the polyacrylamide gel. Sodium dodecyl sulfate-polyacrylamide gel electrophoresis (SDS-PAGE) was performed in running buffer (25 mM Tris-HCl, 190 mM glycine and 0.1% SDS) under constant voltage of 100V for 20-30 minutes until the samples and protein ladders reached the separating gel. By then, SDS-PAGE was set to run under constant voltage of 120V for about 1 hour, depending on the size of target proteins. The proteins in the separating gel were transferred to polyvinylidene difluoride (PVDF) membrane in transfer buffer (25 mM Tris-HCl, 190 mM glycine, and 20% methanol) at constant current 0.4 A for 1.5 hours on ice. The membranes were blocked with 5% skimmed milk in phosphate buffered saline Tween-20 solution (PBST): 1×PBS and 0.1% Tween-20 and shook at room temperature for 1 hour. Primary antibodies diluted in 5% skimmed milk in PBST were added to the membrane and shook at 4° C. overnight. […]
# [3] = tested on: ATF5, CEBPα and TRIB3 in skin of LMNA^G609G/G609G mice; assay: Immunofluorescence staining of mouse skin; type: in vivo; conditions: CBD treated premature aging mice
# Experimental: The tissue sections were washed twice with PBS and incubated in PBSTr (0.1% Triton X-100 in PBS) for 10 minutes. Then the cells were blocked with 5% fetal bovine serum (FBS) in PBSTr for 1 hour at room temperature. Primary antibodies diluted in 5% FBS in PBSTr were added and incubated at 4° C. overnight. On the following day, the cells were washed three times using PBSTr, incubation for 10 minutes each time. Secondary antibodies diluted in 5% FBS in PBSTr were added and incubated at room temperature for 1 hour. The cells were again washed three times using PBSTr, followed by PBS for two times. The slides were mounted with SlowFade Gold antifade reagent. Then the slides were ready to be analyzed under a confocal microscope.
# [4] = wildtype and LMNA^G609G/G609G MEFs
structure (smiles),measurement,setting,value
"C=C(C)[C@@H]1CCC(C)=C[C@H]1c1c(O)cc(CCCCC)cc1O [CBD, Cannabidiol]","relative cell viability, irradiated senescent MSCs",[1]; 10 Gy gamma irradiation,significantly decrease the cell viability
same,"relative cell viability, non-irradiated control MSCs",[1],significantly increase the cell viability
same,relative nuclear circularity,LMNA^G609G/G609G MEFs,significantly increased the relative nuclear circularity
same,progerin levels,[2]; MEFs,not affected
same,p16 level,[2]; [4],downregulate
same,p21 level,[2]; [4],downregulate
same,ATF5 protein level decrease in skin,[3],reversed
same,CEBPα protein level decrease in skin,[3],reversed
same,TRIB3 protein level decrease in skin,[3],reversed

# From US20220354805A1, “Cannabidiol (CBD) as Chemical for Treating Aging-related Degenerative Diseases and Promoting Health Aging” (Hemix Biotech Limited, priority 2021, published 2022)
